In US11597702B2, “Substituted pyrazoles FFA4/GPR120 receptor agonists” (AXXAM S.P.A., priority 2018, dated 2023) one finds EC50 data, which are given here for 29 compounds.

The term EC50 denotes the midpoint of the concentration-response curve.

This experiment has as its target T1, GPR120 (Homo sapiens, UniProt Q5NUL3).
T1 construct: expressed in transfected cells; host or cells: CHO mitoPhotinaGPR120 cells
T1 sequence (Q5NUL3 1-361): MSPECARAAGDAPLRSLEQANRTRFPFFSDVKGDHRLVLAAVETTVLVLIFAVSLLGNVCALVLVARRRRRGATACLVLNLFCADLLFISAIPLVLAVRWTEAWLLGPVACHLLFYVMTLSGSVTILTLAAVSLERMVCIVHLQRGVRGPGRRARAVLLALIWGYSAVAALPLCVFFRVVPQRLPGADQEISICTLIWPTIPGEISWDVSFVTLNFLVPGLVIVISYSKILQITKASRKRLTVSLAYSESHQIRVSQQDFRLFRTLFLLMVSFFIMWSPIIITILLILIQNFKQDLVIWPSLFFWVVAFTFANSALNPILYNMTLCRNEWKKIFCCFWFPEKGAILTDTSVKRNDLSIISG
In words: GPR120 agonism in CHO mitoPhotinaGPR120 cell based assay with fluorescent (Fluo-8 calcium, FLIPRTetra) readout, Agonist Mode, dose response. The settings on record: CHO mitoPhotinaGPR120 cells, Fluo-8 No Wash Ca2+ dye, dose response in quadruplicate, 0.0033% fatty acid free BSA. The protocol: Compounds of the invention were tested for GPR120 agonism in a CHO mitoPhotinaGPR120 cell based assay with fluorescent readout in Agonist Mode in dose response in quadruplicate with intra-plate modality.
Twenty (20) h after seeding, growth medium was manually removed and cells were starved in the presence of 25 μL/w of Standard Tyrode's Buffer. After 3 h, cells were loaded with 20 μL/w of 0.5× Fluo-8 No Wash (AAT Bioquest, Inc.) Ca2+ sensitive dye prepared in Standard Tyrode's Buffer. Cells were incubated for 1 h at room temperature in the dark. Ten (10) μL/w 3× of controls and compounds were diluted in Standard Tyrode's Buffer+0.01% fatty acid free BSA (final concentration=0.0033%) and injected at the FLIPRTetra®, recording the kinetic calcium traces for 3 minutes. Standard Tyrode's buffer composition: 5 mM KCl, 130 mM NaCl, 2 mM CaCl2), 5 mM NaHCO3, 1 mM MgCl2, 20 mM HEPES, pH7.4.

For `Cc1nn(-c2ccc(F)cc2)c(COCc2ccccc2)c1C#N` [Example 98, 5-(benzyloxymethyl)-1-(4-fluorophenyl)-3-methyl-pyrazole-4-carbonitrile], the EC50 is 9.9 µM. On to `Cc1nn(-c2cccc(F)c2)c(COc2ccc(CCO)cc2)c1C#N` [Example 101, 1-(3-fluorophenyl)-5-[[4-(2-hydroxyethyl)phenoxy]methyl]-3-methyl-pyrazole-4-carbonitrile], for which the EC50 worked out at 1.48 µM. For `Cc1nn(-c2ccccn2)c(COc2ccc(CCO)cc2)c1C#N` [Example 102, 5-[[4-(2-hydroxyethyl)phenoxy]methyl]-3-methyl-1-(2-pyridyl)pyrazole-4-carbonitrile] the value was 0.53 µM; for `Cc1nn(-c2cccnc2)c(COc2ccc(CCO)cc2)c1C#N` [Example 103, 5-[[4-(2-hydroxyethyl)phenoxy]methyl]-3-methyl-1-(3-pyridyl)pyrazole-4-carbonitrile], 9.22 µM. The figure for `Cc1nn(-c2ccncc2)c(COc2ccc(CCO)cc2)c1C#N` [Example 104, 5-[[4-(2-hydroxyethyl)phenoxy]methyl]-3-methyl-1-(4-pyridyl)pyrazole-4-carbonitrile] is 10.4 µM; for `Cc1nn(-c2ncccn2)c(COc2ccc(CCO)cc2)c1C#N` [Example 105, 5-[[4-(2-hydroxyethyl)phenoxy]methyl]-3-methyl-1-pyrimidin-2-yl-pyrazole-4-carbonitrile] it is 12.6 µM. The figure for `Cc1nn(-c2cccnn2)c(COc2ccc(CCO)cc2)c1C#N` [Example 106, 5-[[4-(2-hydroxyethyl)phenoxy]methyl]-3-methyl-1-pyridazin-3-yl-pyrazole-4-carbonitrile] is 2.49 µM; for `Cc1nn(-c2ccc(C#N)cc2)c(COc2ccc(CCO)cc2)c1C#N` [Example 107, 1-(4-cyanophenyl)-5-[[4-(2-hydroxyethyl)phenoxy]methyl]-3-methyl-pyrazole-4-carbonitrile] it is 8.15 µM; for `Cc1nn(-c2ccc(C(F)(F)F)cc2)c(COc2ccc(CCO)cc2)c1C#N` [Example 109, 5-[[4-(2-hydroxyethyl)phenoxy]methyl]-3-methyl-1-[4-(trifluoromethyl)phenyl]pyrazole-4-carbonitrile] it is 3.22 µM.

Consider `Cc1nn(-c2c(F)cccc2F)c(COc2ccc(CCO)cc2)c1C#N` [Example 112, 1-(2,6-difluorophenyl)-5-[[4-(2-hydroxyethyl)phenoxy]methyl]-3-methyl-pyrazole-4-carbonitrile], for which the EC50 came to 10.2 µM.

As to `Cc1nn(-c2ccc(F)cc2F)c(COc2ccc(CCO)cc2)c1C#N` [Example 114, 1-(2,4-difluorophenyl)-5-[[4-(2-hydroxyethyl)phenoxy]methyl]-3-methyl-pyrazole-4-carbonitrile], the EC50 turned out to be 5.55 µM. For `Cc1nn(-c2ccc(OC(F)(F)F)cc2)c(COc2ccc(CCO)cc2)c1C#N` [Example 115, 5-[[4-(2-hydroxyethyl)phenoxy]methyl]-3-methyl-1-[4-(trifluoromethoxy)phenyl]pyrazole-4-carbonitrile] the value was 4.62 µM; for `Cc1nn(-c2ccc(Cl)nn2)c(COc2ccc(CCO)cc2)c1C#N` [Example 116, 1-(6-chloropyridazin-3-yl)-5-[[4-(2-hydroxyethyl)phenoxy]methyl]-3-methyl-pyrazole-4-carbonitrile], 1.63 µM. The figure for `Cc1nn(C2CCCC2)c(COc2ccc(CCO)cc2)c1C#N` [Example 117, 1-cyclopentyl-5-[[4-(2-hydroxyethyl)phenoxy]methyl]-3-methyl-pyrazole-4-carbonitrile] is 1.2 µM; for `Cc1nn(C2CCCCC2)c(COc2ccc(CCO)cc2)c1C#N` [Example 118, 1-cyclohexyl-5-[[4-(2-hydroxyethyl)phenoxy]methyl]-3-methyl-pyrazole-4-carbonitrile] it is 2.24 µM. For `Cc1cc(COc2ccc(CCO)cc2)n(-c2ccccc2)n1` [Example 126, 2-[4-[(5-methyl-2-phenyl-pyrazol-3-yl)methoxy]phenyl]ethanol], the EC50 was 5.92 µM. For `N#Cc1cnn(-c2ccccc2)c1COc1ccc(CCO)cc1` [Example 129, 5-[[4-(2-hydroxyethyl)phenoxy]methyl]-1-phenyl-pyrazole-4-carbonitrile] the value was 3.33 µM; for `N#Cc1cnn(-c2ccccc2)c1COc1ccc(CCCO)cc1` [Example 130, 5-[[4-(3-hydroxypropyl)phenoxy]methyl]-1-phenyl-pyrazole-4-carbonitrile], 0.19 µM; for `Cc1nn(-c2ccccc2)c(COc2c(F)cc(CCC(=O)O)cc2F)c1C#N` [Example 133, 3-[4-[(4-cyano-5-methyl-2-phenyl-pyrazol-3-yl)methoxy]-3,5-difluoro-phenyl]propanoic acid], 9.73 µM. With `Cc1nn(-c2ccccc2)c(COc2ccc(CCC3CCNCC3)cc2)c1C#N` [Example 136, 3-methyl-1-phenyl-5-[[4-[2-(4-piperidyl)ethyl]phenoxy]methyl]pyrazole-4-carbonitrile], the EC50 stood at 17.7 µM. For `Cc1nn(-c2ccccc2)c(COc2ccc(-c3nc(CO)cs3)cc2)c1C#N` [Example 146, 5-[[4-[4-(hydroxymethyl)thiazol-2-yl]phenoxy]methyl]-3-methyl-1-phenyl-pyrazole-4-carbonitrile] the value was 3.36 µM. For `Cc1nn(-c2ccccc2)c(COc2ccc(CO)cc2C(F)(F)F)c1C#N` [Example 147, 5-[[4-(hydroxymethyl)-2-(trifluoromethyl)phenoxy]methyl]-3-methyl-1-phenyl-pyrazole-4-carbonitrile] the value was 1.49 µM; for `Cc1nn(-c2ccccn2)c(COc2ccc(CCCO)cc2)c1C#N` [Example 149, 5-[[4-(3-hydroxypropyl)phenoxy]methyl]-3-methyl-1-(2-pyridyl)pyrazole-4-carbonitrile], 0.15 µM. As to `Cc1ccc(-n2nc(C)c(C#N)c2COc2ccc(CCCO)cc2)cc1` [Example 150, 5-[[4-(3-hydroxypropyl)phenoxy]methyl]-3-methyl-1-(p-tolyl)pyrazole-4-carbonitrile], the EC50 worked out at 0.15 µM. In the case of `CCc1ccc(-n2nc(C)c(C#N)c2COc2ccc(CCCO)cc2)cc1` [Example 151, 1-(4-ethylphenyl)-5-[[4-(3-hydroxypropyl)phenoxy]methyl]-3-methyl-pyrazole-4-carbonitrile], the EC50 was 0.24 µM. The figure for `Cc1nn(-c2ccc(Cl)cc2)c(COc2ccc(CCCO)cc2)c1C#N` [Example 152, 1-(4-chlorophenyl)-5-[[4-(3-hydroxypropyl)phenoxy]methyl]-3-methyl-pyrazole-4-carbonitrile] is 0.51 µM; for `Cc1nn(C2CCCC2)c(COc2ccc(CCCO)cc2)c1C#N` [Example 153, 1-cyclopentyl-5-[[4-(3-hydroxypropyl)phenoxy]methyl]-3-methyl-pyrazole-4-carbonitrile] it is 0.18 µM; for `Cc1nn(-c2ccc(F)cn2)c(COc2ccc(CCCO)cc2)c1C#N` [Example 154, 1-(5-fluoro-2-pyridyl)-5-[[4-(3-hydroxypropyl)phenoxy]methyl]-3-methyl-pyrazole-4-carbonitrile] it is 0.21 µM.

Regarding `Cc1nn(-c2ccc(Cl)cn2)c(COc2ccc(CCCO)cc2)c1C#N` [Example 155, 1-(5-chloro-2-pyridyl)-5-[[4-(3-hydroxypropyl)phenoxy]methyl]-3-methyl-pyrazole-4-carbonitrile], the EC50 came to 0.81 µM.
